Measurements as given in paper PMC12027554, “Inhibition of ABCG2 by SCO-101 Enhances Chemotherapy Efficacy in Cancer” (International Journal of Molecular Sciences, 2025).

Legend:
HT29SN-38 cells [1] = test: Colony formation assay; assay type: cell-based, human; conditions: 7 days
Protocol: Cells were trypsinized and counted, and 400 cells/well were seeded in 24-well plates. Drug treatments were performed 24 h after seeding for a total duration of 6 (LoVo) or 7 (HT29) days. Next, media were removed, and cells were washed with PBS and stained with 250 μL Crystal Violet solution for 10 min. Crystal Violet was then removed, plates rinsed with tap water, images captured, and colonies counted using the ImageJ software (version 1.54p). Survival fraction and plating efficiency (PE) were calculated as follows: Survival Fraction=number of colonies/number of cells plated ∗ PE PE=number of colonies formed in control/number of cells seeded

HT29SN-38 cells [2] = test: Cellular dye efflux assay (Hoechst 33342), resistant cells; assay type: cell-based, human; conditions: SCO-101 20 µM, Ko-143 1 µM, PSC833 1 µM
Protocol: Twenty-four hours before the experiments, cells were seeded into 96-well Nunclon^TM plates at a density of 6000 (HT29), 7000 (PANC-1) or 8000 (LoVo) cells/well. The following day, cells were treated in triplicate with the relevant drugs at the indicated concentrations for 1 h. Next, 5 μg/mL Hoechst 33342 was added to the wells, and plates incubated at 37 °C for 30 min^−1 h. Cells were washed with cold PBS, treatments re-added and plates re-incubated at 37 °C for 30 min to 1 h. Plates were analyzed using a Celigo® (Nexcelom Bioscience, Lawrence, MA, USA) imaging cytometer. Data are expressed as percentages of fluorescence intensity, calculated through the following formula: % fluorescence intensity=Mean fluorescence intensity of sample/Mean fluorescence intensity of parental control×100
Fluorescent images were captured with an Olympus® IX71/TH4-200 microscope equipped with an Olympus® DP72 camera (Shinjuku, Tokyo, Japan), and cells were seeded at a 1.5 × 10^5 cells/well density and treated as described above.

[3] = target: other members of the UGT family; test: Inhibition of glucuronidation activity of other UGT family enzymes; assay type: biochemical; conditions: Figure S3F
ABCG2 = target: T1, ABCG2 (Homo sapiens, UniProt Q9UNQ0); test: Bidirectional transport of estrone-3-sulfate across Caco-2 cell monolayers; assay type: cell-based; conditions: Caco-2 monolayers, 50 µM SCO-101
T1 sequence (Q9UNQ0 1-655): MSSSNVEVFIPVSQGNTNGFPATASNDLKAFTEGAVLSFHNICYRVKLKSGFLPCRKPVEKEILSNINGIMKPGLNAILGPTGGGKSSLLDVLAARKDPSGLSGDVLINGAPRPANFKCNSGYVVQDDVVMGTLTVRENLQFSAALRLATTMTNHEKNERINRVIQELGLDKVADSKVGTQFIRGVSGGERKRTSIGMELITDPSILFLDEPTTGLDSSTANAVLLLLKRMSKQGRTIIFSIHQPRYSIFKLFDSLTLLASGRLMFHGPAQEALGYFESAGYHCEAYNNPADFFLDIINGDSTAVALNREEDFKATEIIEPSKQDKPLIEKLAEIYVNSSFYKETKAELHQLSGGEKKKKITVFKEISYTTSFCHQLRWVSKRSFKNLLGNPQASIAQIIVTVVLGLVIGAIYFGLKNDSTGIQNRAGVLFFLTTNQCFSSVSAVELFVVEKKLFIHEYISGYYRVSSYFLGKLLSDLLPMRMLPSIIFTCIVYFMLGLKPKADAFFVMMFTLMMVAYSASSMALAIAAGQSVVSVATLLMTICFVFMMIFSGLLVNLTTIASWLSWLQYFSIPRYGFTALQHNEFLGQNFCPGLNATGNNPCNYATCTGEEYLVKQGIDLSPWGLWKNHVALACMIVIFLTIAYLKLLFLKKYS
Protocol: Bidirectional transport experiments (basolateral-to-apical and apical-to-basolateral) with the ABCG2 substrate estrone-3-sulfate and the MDR1/ABCB1 substrate digoxin were performed in Caco-2 cell monolayers as previously described.

[4] = parameters: method as in earlier work; conditions: oral SCO-101 in combination with FOLFIRI; cited from earlier work
MDR1/ABCB1 = MDR1/ABCB1 (Homo sapiens, UniProt P08183); test: Efflux transporter inhibition, vesicular uptake into inside-out membrane vesicles (ABCB1); assay type: biochemical; conditions: 1 μM N-methyl-quinidine
Protocol: Efflux transporter inhibition was evaluated by measuring vesicular uptake into inside-out membrane vesicles (SOLVO biotechnology, Budapest, Hungary) expressing a single human ABC transporter (0.67 mg/mL ABCB1; 0.67 mg/mL ABCC2; 0.33 mg/mL ABCG2 membrane protein) of a probe substrate (1 μM N-methyl-quinidine for ABCB1; 100 μM 5(6)-carboxy-2′,7′-dichlorofluorescein for ABCC2; 1 μM Eestrone-3-sulfate for ABCG2) in the presence of SCO-101 with and without ATP (4 mM) in 96-well plate format. Control solvent and control inhibitors (4–60 μM verapamil for […]; 1–15 μM sulfasalazine for ABCG2; 5.5–150 μM benzbromarone for ABCC2) were incubated in parallel. Vesicular uptake was conducted at 37 °C in incubation buffer (10 mM Tris-HCl, pH 7.4, 10 mM MgCl2, 250 mM sucrose) and terminated after 1 min (ABCB1 and ABCG2) or 5 min (ABCC2) by adding ice-cold washing buffer (10 mM Tris-HCl, pH 7.4, 100 mM NaCl, 250 mM sucrose). […] Probe quantification was conducted using LC-MS/MS peak areas (solvent control with ATP − AMP = 100%). […] The remaining transporter activity % was calculated according to the formula below, and fitting was performed using GraphPad Prism: A%=AATP,sample−AAMP,sample/AATP,solvent−AAMP,solvent

Sequence of MDR1/ABCB1 (P08183 whole entry): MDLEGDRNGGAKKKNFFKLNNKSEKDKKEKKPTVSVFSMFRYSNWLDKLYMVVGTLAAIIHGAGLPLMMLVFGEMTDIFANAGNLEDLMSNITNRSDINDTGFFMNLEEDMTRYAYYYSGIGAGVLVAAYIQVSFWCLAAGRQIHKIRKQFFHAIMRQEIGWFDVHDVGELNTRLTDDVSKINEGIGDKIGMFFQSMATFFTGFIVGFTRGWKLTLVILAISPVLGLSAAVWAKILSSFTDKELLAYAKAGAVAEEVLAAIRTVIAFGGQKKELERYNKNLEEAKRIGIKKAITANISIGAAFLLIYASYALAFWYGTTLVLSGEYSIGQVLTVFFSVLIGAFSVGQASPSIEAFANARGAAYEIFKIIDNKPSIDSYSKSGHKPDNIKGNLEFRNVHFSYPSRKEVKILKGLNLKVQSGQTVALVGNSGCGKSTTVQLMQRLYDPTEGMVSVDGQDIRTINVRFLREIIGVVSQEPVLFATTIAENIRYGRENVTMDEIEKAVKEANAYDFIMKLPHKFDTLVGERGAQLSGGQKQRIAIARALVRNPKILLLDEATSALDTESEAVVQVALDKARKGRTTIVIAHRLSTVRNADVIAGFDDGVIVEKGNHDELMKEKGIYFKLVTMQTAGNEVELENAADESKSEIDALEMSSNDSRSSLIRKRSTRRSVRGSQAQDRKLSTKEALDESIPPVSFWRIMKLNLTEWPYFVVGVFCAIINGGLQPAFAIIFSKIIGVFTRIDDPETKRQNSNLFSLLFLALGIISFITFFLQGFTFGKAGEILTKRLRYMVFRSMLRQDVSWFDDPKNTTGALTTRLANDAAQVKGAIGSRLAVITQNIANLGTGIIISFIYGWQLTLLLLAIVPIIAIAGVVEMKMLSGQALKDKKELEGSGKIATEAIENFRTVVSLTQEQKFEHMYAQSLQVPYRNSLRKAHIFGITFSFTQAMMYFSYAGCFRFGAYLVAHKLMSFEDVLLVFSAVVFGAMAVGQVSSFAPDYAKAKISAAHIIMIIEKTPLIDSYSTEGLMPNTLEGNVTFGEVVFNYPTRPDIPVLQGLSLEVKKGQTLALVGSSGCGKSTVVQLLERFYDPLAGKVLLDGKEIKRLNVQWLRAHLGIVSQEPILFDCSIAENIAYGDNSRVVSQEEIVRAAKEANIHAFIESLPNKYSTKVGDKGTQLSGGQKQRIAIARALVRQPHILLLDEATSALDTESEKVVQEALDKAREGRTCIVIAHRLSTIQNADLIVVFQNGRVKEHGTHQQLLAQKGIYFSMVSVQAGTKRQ

## O=C(Nc1cc(C(F)(F)F)cc(C(F)(F)F)c1)Nc1ccc(Br)cc1-c1nnn[nH]1 [SCO-101, N-[4-Bromo-2-(1H-1,2,3,4-tetrazol-5-yl)phenyl]-N′-[3,5-bis(trifluoromethyl)phenyl]urea]
HT29SN-38 cells [1]; 10 µM SCO-101 alone
  colony formation ability (survival fraction): did not affect
HT29SN-38 cells [1]; SCO-101 0–20 µM + SN-38 0.01 μM, vs SCO-101 alone
  colony formation ability, SCO-101 in combination with SN-38: significant reduction
HT29SN-38 cells [2]
  H33342 dye accumulation: restored
[3]
  IC50 for other members of the UGT family compared with UGT1A1: higher IC50 values
ABCG2
  basolateral-to-apical transport of the ABCG2 substrate estrone-3-sulfate: completely blocked
[4]
  safety: safe
MDR1/ABCB1
  IC50: 16.1 µM
